Results reported in patent US7790759B2, “Glycyrrhetinic acid-30-amide derivatives and their use” (Tianjin Institute of Pharmaceutical Research, priority 2005, dated 2010).

Experiments:
writhing response = experiment: Analgesic effect: acetic acid-induced writhing response; format: in vivo, ICR mice; details: 50 mg/kg intragastric; for Writhing occurrence (x ± s): 0.6% acetic acid i.p. 1 h after administration, counted during 15 minutes, n = 10
Experimental: Male or female healthy ICR mice, each weighing 18-22 g, were used. Each mouse was injected intraperitoneally with 0.6% acetic acid in a dose of 0.2 ml one day before the test. The mice with the writhing response occurring in the range of 10-50 times were selected. The selected mice were grouped randomly into model, positive control and test groups based on the occurrence of the writhing response, with 10 animals for each group. The positive group was treated with aspirin in a dose of 50 mg/kg of body weight.
After fasting for at least 12 h, the animals were intragastrically administrated: the animals in model group are administered only with 1% CMCNa in the same amount. 1 h after administration, the mice were intraperitoneally injected with 0.6% acetic acid in a dose of 0.2 ml per animal. After 5 min, the occurrence of the writhing responses for one mouse was recorded during a period of 15 minutes. Based on the occurrence recorded, the inhibition rate of the active ingredient for writhing response was calculated. Inhibition rate=(means of the writhing occurrence for model group−means of the writhing occurrence for test group)/means of writhing occurrence for model group×100%. (3) Cough-prevention

cough = experiment: Cough-prevention: ammonia-induced cough; format: in vivo, ICR mice; details: for Cough occurrence (x ± sd) / Inhibition rate of cough (%): 50 mg/kg intragastric; for Cough occurrence (x ± sd): ammonia 1 h after administration, observed within 5 min, n = 10; for Inhibition rate of cough (%): versus model group
Experimental: Male or female healthy ICR mice, each weighing 18-22 g, were used. They were grouped randomly into model, positive control and test groups based on body weight, with 10 animals for each group. The positive group was treated by codeine phosphate in a dose of 50 mg/kg of body weight.
After fasting for at least 12 h, the animals were intragastrically administrated: the animals in model group are administered only with 1% CMCNa in the same amount. To start the test, 1 h after administration, the mice were placed in a 500 ml container, into which a cotton ball sucking 0.3 ml of ammonia was added to cause coughing. The occurrence of cough was observed within 5 min. Inhibition rate of cough=(the cough occurrence for model group−the cough occurrence for test group)/the cough occurrence for model group×100%. (4) Aldosterone-like Side Effects

swollen ear model = experiment: Anti-inflammatory effect: xylene-induced swollen ear model; format: in vivo, ICR mice; details: 40 mg/kg, intragastric, xylene on right ear 30 min after administration; weight ratio swollen ear to normal ear; n 8-10
Experimental: Male or female healthy ICR mice, each weighing 18-20 g, were grouped randomly into model, positive control and test groups based on body weight, with 8-10 animals for each group. The positive group was treated by hydrocortisone in a dose of 40 mg/kg of body weight.
The compound of formula I to be tested was administered intragastrically at a concentration of 2 mg/ml in a 1% CMCNa solution, while a 1% CMCNa solution alone was administered to the model group in the same amount. 30 min after administration, 50 μl of xylene solution was added dropwise into the right ear of each mouse to cause an inflammation reaction. 30 min later, the mice were killed by breaking the cervical vertebrae. Both ears were excised immediately from the mices, and punched in the same position with a puncher having a diameter of 0.6 cm. The obtained ear piece was weighed. For each mouse, the weight ratio of swollen ear to normal ear was regarded as an indication for the degree of swelling. Biostatistical analysis was performed using the Student's t test.

[1] = system: paracetamol/hepatitis mice models; experiment: Liver protection in paracetamol/hepatitis mice models; details: 100 mg/kg
[2] = Subacute toxicity within one month (death); format: in vivo; details: 300 mg/kg of body weight for one week
Experimental: (§1) Three compounds of formula I of the invention were selected to examine their subacute toxicity within one month, with dexamethasone and glycyrrhetinic acid as control. […] Furthermore, the level of aldosterone in blood plasma was determined. The level will decrease in a negative feedback way when an agent having aldosterone-like effects is administrated.

aldosterone = format: in vivo; details: subacute toxicity study
Experimental: as §1

Influenza virus A = experiment: Influenza virus A-infected mice models; format: in vivo; details: 100 mg/kg

Structure (SMILES) | Writhing occurrence (x ± s) (writhing response) | Inhibition rate of writhing response (%) (writhing response; versus model group) | Cough occurrence (x ± sd) (cough) | Inhibition rate of cough (%) (cough) | Swelling degree of the swollen ear model (%) (x ± sd) (swollen ear model) | also measured
CC1(C(=O)NCc2cc(-c3cccc(Cl)c3)no2)CCC2(C)CCC3(C)C(=CCC4C5(C)CCC(O)C(C)(C)C5CCC43C)C2C1 (stereo not shown) [DG8, N-[(3-m-chlorophenyl-isoxazol-5-yl)methyl]-11-deoxy-glycyrrhetinamide] | 15.89 ± 16.67 | 21.9% | 17.90 ± 8.21 | 35.61% |  | 
COc1ccccc1-c1cc(CNC(=O)C2(C)CCC3(C)CCC4(C)C(=CCC5C6(C)CCC(O)C(C)(C)C6CCC54C)C3C2)on1 (stereo not shown) [DG6, N-[(3-o-methoxyphenyl-isoxazol-5-yl)methyl]-11-deoxy-glycyrrhetinamide] | 8.00 ± 6.48 | 60.7% | 22.60 ± 9.56 | 18.71% | 64.4 ± 29.2 % | GPT [1]: decreased
Cc1ccc(-c2cc(CNC(=O)C3(C)CCC4(C)CCC5(C)C(=CC(=O)C6C7(C)CCC(O)C(C)(C)C7CCC65C)C4C3)on2)cc1 (stereo not shown) [Compound G2, N-[(3-p-methylphenyl-isoxazol-5-yl)methyl]-glycyrrhetinamide] |  |  |  |  | 68.6 ± 29.5 % | 
CC1(C(=O)NCc2cc(-c3ccc(O)cc3)no2)CCC2(C)CCC3(C)C(=CC(=O)C4C5(C)CCC(O)C(C)(C)C5CCC43C)C2C1 (stereo not shown) [Compound G1, N-[(3-p-hydroxylphenyl-isoxazol-5-yl)methyl]-glycyrrhetinamide] | 16.33 ± 10.57 | 19.7% | 28.20 ± 15.39 | −1.44% |  | 
COc1ccc2c3c1O[C@H]1[C@@H](O)C=C[C@H]4[C@@H](C2)N(C)CC[C@@]341 [codeine phosphate, reference compound] |  |  | 8.40 ± 8.95 |  |  | inhibition at 50 mg/kg (cough; Mus musculus, po, read-out: Inhibition rate of cough (%)): 69.8%
COc1ccccc1-c1cc(CNC(=O)C2(C)CCC3(C)CCC4(C)C(=CC(=O)C5C6(C)CCC(O)C(C)(C)C6CCC54C)C3C2)on1 (stereo not shown) [Compound G6, N-[(3-o-methoxyphenyl-isoxazol-5-yl)methyl]-glycyrrhetinamide] |  |  |  |  | 53.4 ± 35.2 % | 
CC(=O)Oc1ccccc1C(=O)O [aspirin, reference compound] | 5.44 ± 5.87 |  |  |  |  | inhibition at 50 mg/kg (writhing response; Mus musculus, po, versus model group, read-out: Inhibition rate of writhing response (%)): 73.2%
CC1(C(=O)NCc2cc(-c3ccc(F)cc3)no2)CCC2(C)CCC3(C)C(=CC(=O)C4C5(C)CCC(O)C(C)(C)C5CCC43C)C2C1 (stereo not shown) [Compound G3, N-[(3-p-fluorophenyl-isoxazol-5-yl)methyl]-glycyrrhetinamide] |  |  |  |  | 60.8 ± 27.9 % | 
Cc1ccc(-c2cc(CNC(=O)[C@@]3(C)CC[C@]4(C)CC[C@]5(C)C(=CCC6[C@@]7(C)CC[C@H](O)C(C)(C)C7CC[C@]65C)[C@@H]4C3)on2)cc1 (stereo partly shown) [DG2, N-[(3-p-methylphenyl-isoxazol-5-yl)methyl]-11-deoxy-glycyrrhetinamide] |  |  |  |  | 80.2 ± 18.8 % | 
CC1(C(=O)NCc2cc(-c3ccc(F)cc3)no2)CCC2(C)CCC3(C)C(=CCC4C5(C)CCC(O)C(C)(C)C5CCC43C)C2C1 (stereo not shown) [DG3, N-[(3-p-fluorophenyl-isoxazol-5-yl)methyl]-11-deoxy-glycyrrhetinamide] | 18.33 ± 13.56 | 9.8% | 17.70 ± 7.10 | 36.33% | 56.1 ± 28.3 % | 
Cc1cc(CNC(=O)C2(C)CCC3(C)CCC4(C)C(=CCC5C6(C)CCC(O)C(C)(C)C6CCC54C)C3C2)on1 (stereo not shown) [DG7, N-[(3-methyl-isoxazol-5-yl)methyl]-11-deoxy-glycyrrhetinamide] | 15.78 ± 12.43 | 22.4% | 20.40 ± 14.31 | 26.62% |  | 
C[C@@H]1C[C@H]2[C@@H]3CCC4=CC(=O)C=C[C@]4(C)[C@@]3(F)[C@@H](O)C[C@]2(C)[C@@]1(O)C(=O)CO [dexamethasone] |  |  |  |  |  | Death in subacute toxicity test [2]: All the animals died
CC1(C)[C@@H](O)CC[C@]2(C)[C@H]3C(=O)C=C4[C@@H]5C[C@@](C)(C(=O)O)CC[C@]5(C)CC[C@@]4(C)[C@]3(C)CC[C@@H]12 [glycyrrhetinic acid] |  |  |  |  |  | Death in subacute toxicity test [2]: no death was observed; Aldosterone level in blood plasma (ng/ml) (x ± sd) (aldosterone; 300 mg/kg, n = 8): 68.3 ± 12.5 ng/mL; Aldosterone-like effects (decrease of plasma aldosterone by negative feedback) (aldosterone): confirmed the aldosterone-like effects
CC1(C)[C@@H](O)CC[C@]2(C)[C@H]3CC=C4[C@@H]5C[C@@](C)(C(=O)NCc6cc(-c7ccccc7Cl)no6)CC[C@]5(C)CC[C@@]4(C)[C@]3(C)CC[C@@H]12 [DG4, N-[(3-o-chlorophenyl-isoxazol-5-yl)methyl]-11-deoxy-glycyrrhetinamide] | 6.56 ± 6.19 | 67.8% | 18.80 ± 7.04 | 32.37% |  | Death rate caused by the virus infection (Influenza virus A): decreased
COc1ccccc1-c1cc(CNC(=O)[C@@]2(C)CC[C@]3(C)CC[C@]4(C)C(=CC(=O)[C@@H]5[C@@]6(C)CC[C@H](OC(C)=O)C(C)(C)[C@@H]6CC[C@]54C)[C@@H]3C2)on1 [RG1, N-[(3-o-methoxyphenyl-isoxazol-5-yl)methyl]-3-acetoxy-glycyrrhetinamide] |  |  | 17.64 ± 6.34 | 36.55% |  | 
C[C@]12CCC(=O)C=C1CC[C@@H]1[C@@H]2[C@@H](O)C[C@@]2(C)[C@H]1CC[C@]2(O)C(=O)CO [hydrocortisone, reference compound] |  |  |  |  | 55.7 ± 35.4 % | 
